Results reported in EP1038880B1, “Androstanes and pregnanes for allosteric modulation of GABA receptor” (priority 1994, dated 1995).

Target: GR complex
Test: [35S]TBPS binding assay (inhibition of [35S]TBPS binding, cerebral cortex P2 homogenate)
Set-up: species or system rat
Settings: for IC50: 2 nM [35S]TBPS, rat cerebral cortex P2 homogenate; for IMAX: maximum inhibition of [35S]TBPS binding
Method: We performed several experiments to determine the nature of the modulation of [^35S]TBPS as affected by the compounds of the invention.
These procedures were performed as follows:
Brains from male Sprague-Dawley rats were removed immediately following sacrifice and the cerebral cortices dissected over ice. […] Briefly, the cortices were gently homogenized in 0.32 M sucrose followed by centrifugation at 1000 x g for 10 minutes. The supernatant was collected and centrifuged at 9000 x g for 20 minutes. The resultant P2 pellet was suspended as a 10% (original wet weight/volume) suspension in 50 mM Na/K phosphate buffer (pH 7.4) 200 mM NaCl to form the homogenate.
One hundred microliter […] aliquots of the P2 homogenate (0.5 milligrams (mg) protein) were incubated with 2 nanomolar (nM) [^35S]TBPS (70-110 curies/millimole; New England Nuclear, Boston, MA) in the presence or absence of the naturally occurring steroids or their synthetic derivatives to be tested. The tested compounds were dissolved in dimethylsulfoxide (Baker Chem. Co., Phillipsbury, NJ) and added to the incubation mixture in 5 µL aliquots. The incubation mixture was brought to a final volume of 1 mL with buffer. Non-specific binding was defined as binding in the presence of […] TBPS. The effect and specificity of GABA (Sigma Chem. Co., St. Louis, MO) was evaluated by performing all assays in the presence of GABA plus (+)bicuculline (Sigma Chem. Co.). maintained at 25°C for 90 minutes (steady state conditions) were terminated by rapid filtration through glass fiber filters (No. 32, Schleicher and Schuell, Keene, NH). Filter-bound radioactivity was quantitated by liquid scintillation spectrophotometry.
Various compounds were screened to determine their potential as modulators of [^35S]TBPS binding in vitro. These assays were performed in accordance with the above discussed procedures. […] It is an indication of a compound's in vitro potency. Maximum inhibition is an indication of a compound's in vitro efficacy.

Molecule | IC50 [µM] | IMAX [%]
CC(=O)[C@H]1CC[C@H]2[C@@H]3CC[C@@H]4C[C@@](O)(CCCc5ccccc5)CC[C@]4(C)[C@H]3CC[C@]12C [3α-Hydroxy-3β-(3'-phenylpropyl)-5β-pregnan-20-one] | 0.173 | 92
CCOC(=O)c1ccc(C#C[C@@]2(O)CC[C@@]3(C)[C@H](CC[C@@H]4[C@@H]3CC[C@]3(C)[C@@H](C(C)=O)CC[C@@H]43)C2)cc1 [3α-hydroxy-3β-(4'-carboxyphenylethynyl)-5β-pregnan-20-one ethyl ester] |  | 98
3β-(4'-Aminophenyl)ethynyl-3β-hydroxy-5β-20-one | 22.5 | 103
CC(=O)[C@H]1CC[C@H]2[C@@H]3CC[C@@H]4C[C@@](O)(C#CCCO)CC[C@]4(C)[C@H]3CC[C@]12C [3β-(4'-hydroxy-1'-butynyl)-3α-hydroxy-5β-pregnan-20-one] | 0.013 | 103
CC(=O)C1CCC2C3CCC4CC(O)(C#Cc5ccc(O)cc5)CCC4(C)C3CCC12C (stereo not drawn) [3β-(4'-Hydroxyphenylethynyl)-3α-hydroxy-5β-pregnan-20-one] | 1.55 | 88
CC(=O)C1CCC2C3CCC4CC(O)(C#CC=O)CCC4(C)C3CCC12C (stereo not drawn) [3α-Hydroxy-3β-(3'-oxopropynyl)-5β-pregnan-20-one] | 1.72 | 76
CC(=O)[C@H]1CC[C@H]2[C@@H]3CC[C@H]4C[C@@H](O)CC[C@]4(C)[C@H]3CC[C@]12C [3β-Hydroxy-5α-pregnan-20-one, reference compound] | > 1000 | 33
COc1ccc(CC[C@@]2(O)CC[C@@]3(C)[C@H](CC[C@@H]4[C@@H]3CC[C@]3(C)[C@@H](C(C)=O)CC[C@@H]43)C2)cc1OC [3β-(3',4'-Dimethoxyphenylethyl)-3α-hydroxy-5β-pregnan-20-one] | 0.507 | 66
CC(=O)c1ccc(C#C[C@@]2(O)CC[C@@]3(C)[C@@H](CC[C@@H]4[C@@H]3CC[C@]3(C)[C@@H](C(C)=O)CC[C@@H]43)C2)cc1 [3β-(4'-Acetylphenylethynyl)-3α-hydroxy-5α-pregnan-20-one] | 0.005 | 93
C[C@]12C[C@H](O)[C@H]3[C@@H](CCC4=CC(=O)CC[C@@]43C)[C@@H]1CC[C@@H]2C(=O)CO [4-Pregnen-11β,21-diol-3,20-dione, reference compound] | > 1000 | 30
C[C@@]1(O)CC[C@@]2(C)[C@@H](CC[C@@H]3[C@@H]2CC[C@]2(C)[C@@H](C(=O)Cn4cnc5ccccc54)CC[C@@H]32)C1 [21-(1' benzimidazolyl)-3α-hydroxy-3β-methyl-5α-pregnan-20-one] | 0.109 | 95
CC(=O)[C@H]1CC[C@H]2[C@@H]3CC[C@@H]4C[C@@](O)(C#Cc5ccc(C(N)=O)cc5)CC[C@]4(C)[C@H]3CC[C@]12C [3β-(4'-Carboxamidopheny)ethynyl-3α-hydroxy-5β-pregnan-20-one] | 2.24 | 98
CC(=O)[C@H]1CC[C@H]2[C@@H]3CCC4=CC(=O)CC[C@]4(C)[C@H]3CC[C@]12C [Progesterone, reference compound] | 5.2 | 100
CC(=O)[C@H]1CC[C@H]2[C@@H]3CC[C@@H]4C[C@@](O)(C#Cc5ccccc5)CC[C@]4(C)[C@H]3CC[C@]12C [3α-hydroxy-3β-phenylethynyl-5β-pregnan-20-one] | 0.098 | 101
C[C@]12CC[C@@H](O)C[C@H]1CC[C@@H]1[C@@H]2CC[C@]2(C)[C@@H](C(=O)Cn3cncn3)CC[C@@H]12 [3α-Hydroxy-21-(1',2',4'-triazol-1-yl)-5β-pregnan-20-one] |  | 60
CC(=O)C1CCC2C3CCC4CC(O)(C#CCn5cncn5)CCC4(C)C3CCC12C (stereo not drawn) [3α-Hydroxy-3β-[3'-(1H-1,2,4,-triazol-1yl)-1'-propynyl]-5β-pregnan-20-one] | 0.843 | 99
CC(=O)[C@H]1CC[C@H]2[C@@H]3CC[C@@H]4C[C@@](O)(C#CCN(C)C)CC[C@]4(C)[C@H]3CC[C@]12C [3β-[3'-(N,N-dimethylamino)-1'-propynyl]-3α-hydroxy-5β-pregnan-20-one] | 1.42 | 100
CC(=O)[C@H]1CC[C@H]2[C@@H]3CC[C@@H]4C[C@@](O)(C#Cc5ccc(N(C)C)cc5)CC[C@]4(C)[C@H]3CC[C@]12C [3β-(4'-dimethylaminophenyl)ethynyl-3α-hydroxy-5β-pregnan-20-one] | 0.028 | 77
CC(=O)[C@H]1CC[C@H]2[C@@H]3CC[C@@H]4C[C@@](O)(C#Cc5ccc([N+](=O)[O-])cc5)CC[C@]4(C)[C@H]3CC[C@]12C [3β-(4'-Nitrophenylethynyl)-3α-hydroxy-5β-pregnan-20-one] | 0.046 | 103
C[C@]12CC[C@@H](O)C[C@@H]1CC[C@@H]1[C@@H]2CC[C@]2(C)[C@@H](C(=O)CSS(=O)(=O)[O-])CC[C@@H]12.[Na+] [Sodium S-(3α-hydroxy-5α-pregnan-20-on-21-yl) thiosulfate] | 0.133 | 90
CC(=O)CCC#C[C@@]1(O)CC[C@@]2(C)[C@H](CC[C@@H]3[C@@H]2CC[C@]2(C)[C@@H](C(C)=O)CC[C@@H]32)C1 [3α-Hydroxy-3β-[5-oxo-1-hexynyl]-5β-pregnan-20-one] | 0.118 | 101
CCOC(=O)c1ccc(C#CC2(O)CCC3C(CCC4C3CCC3(C)C(C(C)=O)CCC43)C2)cc1 (stereo not drawn) [3β-(4'-Carboxyphenylethynyl)-3α-hydroxy-19-nor-5β-pregnan-20-one ethyl ester] | 0.015 | 94
CC(=O)[C@H]1CC[C@H]2[C@@H]3CC[C@@H]4C[C@@](O)(C#CCCCC(N)=O)CC[C@]4(C)[C@H]3CC[C@]12C [3β-(5'-Carboxamidopentynyl)-3α-hydroxy-5β-pregnan-20-one] | 3.09 | 102
CC12CCC(O)(C#CCO)CC1CCC1C2CCC2(C)C(C(=O)Cn3ccnn3)CCC12 (stereo not drawn) [3α-hydroxy-3β-(3-hydroxypropyn-1-yl)-21-(1,2,3-triazol-1-yl)-5β-pregnan-20-one] | 1.09 | 101
CC12CC(N3CCOCC3)C(O)CC1CCC1C2CCC2(C)C(C(=O)Cn3cncn3)CCC12 (stereo not drawn) [3α-Hydroxy-2β-morpholinyl-21-[1'2'4'-triazolyl)]-5α-pregnan-20-one] | 1.55 | 97
C[C@]12CC[C@](O)(C#CCCO)C[C@H]1CC[C@@H]1[C@@H]2CC[C@]2(C)[C@@H](C(=O)Cn3ccnn3)CC[C@@H]12 [3α-hydroxy-3β-(4-hydroxybutyn-1-yl)-21-(1,2,3-triazol-1-yl)-5β-pregnan-20-one] | 0.079 | 96
C#C[C@@]1(O)CC[C@@]2(C)[C@H](CC[C@@H]3[C@@H]2CC[C@]2(C)[C@@H](C(=O)Cn4cncn4)CC[C@@H]32)C1 [3β-ethynyl-3α-hydroxy-21-(1',2',4'-triazoyl)-5β-pregnan-20-one] | 0.127 | 98
CC12CCC(O)(C#CCCO)CC1CCC1C2CCC2(C)C(C(=O)Cn3cncn3)CCC12 (stereo not drawn) [3α-hydroxy-3β-(4-hydroxybutyn-1-yl)-21-(1,2,4-triazol-1-yl)-5β-pregnan-20-one] |  | 96
